Laboratory results published in patent US4895937A, “5-ioso-2-pyrimidinone nucleoside” (The Research Foundation of State University of New York, priority 1988, dated 1990).
Values joined by “and” are separate entries in the source; they are usually repeats but may differ in a detail not shown here. Identical values can stand only once. “Also recorded” adds a separate entry of the source. Like-named read-outs stand apart in the source and are kept apart here.

How the values were obtained:
[1] = tested on: ACG (S1), acyclovir resistant strain of HSV1; assay: Antiherpes activity, acyclovir resistant strain of HSV1 (S1) (Example 10); type: cell-based, HSV-1
Experimental: (§1) IPdR and 5-bromo-2-pyrimidinone-2-deoxyribonucleoside (BrPdR) were tested for antiherpes activity according to procedures described by Cheng, Y.-C., et al. Antimicrob. Agents Chemother (1976) 10, 119.

[2] = tested on: PFA-resistant strains; assay: Antiherpes activity, PFA-resistant strain (Example 10); type: cell-based
Experimental: as §1

[3] = tested on: HSV-1 and HSV-2 strains (herpes virus group); assay: Antiherpes activity, overall statement; type: cell-based
Experimental: as §1

[4] = tested on: virus-specific thymadine kinase; assay: Binding to the virus-specific thymidine kinase (Example 10); conditions: compared with BrPdR
[5] = tested on: HSV-1 (CLl0l); assay: Antiherpes activity, HSV-1 (CLl0l) (Example 10); type: cell-based; conditions: Human alphaherpesvirus 1; 100 μM; read-out: plaque-forming units as % of control
Experimental: as §1

[6] = tested on: HSV-2 (CEU-G); assay: Antiherpes activity, HSV-2 (CEU-G) (Example 10); type: cell-based; conditions: Human alphaherpesvirus 2, read-out: plaque-forming units as % of control
Experimental: as §1

[7] = tested on: HSV-2 (Strain 333); assay: Antiviral activity in HSV-2 infected mice by various routes (Example 9); type: in vivo, Swiss-Webster female mice; conditions: for % ILS: excluding 45 day survivors
Experimental: The drugs were administered once a day for five days or twice daily (12 hour intervals) for 2.5 days beginning 24 hours postinfection. Mean body weight determinations of drug treated and control animals were made during the treatment period as an indicator of sublethal toxicity. Deaths were recorded through day 45.

[8] = tested on: BVdU resistant strain of HSV-1; assay: Antiherpes activity, BVdU resistant strain (Example 10); type: cell-based; conditions: Human alphaherpesvirus 1, read-out: plaque-forming units as % of control
Experimental: as §1

[9] = tested on: HSV-2 (333 strain); assay: In vivo test of IPdR in mice implanted with HSV-2 (333 strain), survival (Example 4); parameters: species or system Swiss Webster Balb/C mice; conditions: 100 mg/kg twice daily for 2.5 days; for DAYS--SURVIVAL: deaths: 5 mice; for long term survivors (>30 days): out of 5 mice
Experimental: The substituted pyrimidinone of Example 3, 1-(2-deoxy)-β-D-ribofuranosyl)-5-iodo-2-pyrimidinone (IPdR) was tested in vivo. Three groups of five Swiss Webster Balb/C mice weighing from 19 to 23 grams were implanted with HSV-2 (333 strain) with a virus load of 5×10^5 plaque forming units.
Drug administration began one day following virus implant. The IPdR was administered subcutaneously to a first group of mice and intraperitoneally to a second group of mice. The third group of mice which performed as controls were not given any IPdR. The dosage of IPdR was at the rate of 100 mg/kg twice daily for 2.5 days for a total of 5 doses.

[10] = tested on: HSV-2 (333); assay: Antiherpes activity, HSV-2 (333) (Example 10); type: cell-based; conditions: Human alphaherpesvirus 2; 100 μM; read-out: plaque-forming units as % of control
Experimental: as §1

[11] = Cytotoxicity / cell proliferation in KB cells (Example 8 Part B); type: cell-based, human; conditions: human, kb cells, 72 hour exposure
Experimental: (§2) To compare the toxicity of FPdR and IPdR human nasopharyngeal carcinoma KB cells obtained from the American Type Culture Collection were maintained as a monolayer in RPMI 1640 supplemented with 5% fetal bovine serum, 10 mM HEPES buffer (pH 7.4) and karamycin (100 μg/ml). Cells were maintained at 37° C. in a humidified atmosphere of 5% CO2 in air. Cell numbers were determined with an electronic particle counter (Particle Data, Inc., Elmhurst, Ill.).
(§3) For determination of drug effect on cell proliferation, cells were harvested from rapidly proliferting cultures by treatment with pancreation. Cell number was determined and plated in 24 well (6 mm well diameter) plates at a concentratin of 5×10^3 cells/ml. Drug exposures were initiated by a complete change of medium after overnight incubation. Following a 72 hour drug exposure […]. of thiazolyl blue was added and incubated for a further 4 hour period. The media from the plates was aspirated completely and […] DMSO was added to each well. The plates were placed on a shaker for 5 minutes and the blue solution transferred to 96 well plates and read at 540 nm with a scanning multiwell spectrophotometer (Biotek Instruments, Inc. Burlington, Vt.).

[12] = tested on: human nasopharyngeal carcinoma KB cells; assay: as above; type: cell-based
Experimental: as §2, §3

[13] = tested on: HSV-2 (strain 333); assay: Antiviral activity, HSV-2 plaque reduction (Example 8 Part A); type: cell-based
Experimental: The effects of 1-(2-Deoxy-β-D-ribofuranosyl)-5-iodo-2-pyrimidinone (IPdR) of Example 3 were compared with 1-(2-Deoxy-β-D-ribofuranosyl)-5-fluoro-2-pyrimidinone (FPdR) on HSV-2 (strain 333) in […]. Twenty four well plates (sterile) were plated with 10^6 Vero cells/well the day before infecting. 250 PFU of HSV-2 were used in each well. The test compounds, IPdR and FPdR, were added at zero times of post infection and the cultures incubated at 37° C. for 48 hours. At the end of the incubation period the media was removed from Vero cells. Plates were strained with 0.8% crystal violet in 50% ethanol for 15 minutes. The plaque was counted.

[14] = tested on: HSV-1 (KOS); assay: Antiherpes activity, HSV-1 (KOS) (Example 10); type: cell-based; conditions: Human alphaherpesvirus 1; 100 μM; read-out: plaque-forming units as % of control
Experimental: as §1

[15] = 100 mg/kg oral, 2 × 21/2, 72 hours after implant
[16] = 100 mg/kg oral, 2 × 21/2, innoculation dose 1 × 10^6 PFU

Compound: O=c1ncc(I)cn1[C@H]1C[C@H](O)[C@@H](CO)O1 [IPdR, 1-(2-Deoxy-β-D-Ribofuranosyl)-5-iodo-2-pyrimidinone]
- activity at 100 µM ([1]; Human alphaherpesvirus 1, read-out: plaque-forming units as % of control): 22%
- cross resistance of the more highly ACG-resistant strain ([1]; S1 compared with Tr7): more cross resistance
- activity against PFA-resistant strains [2]: retained full activity
- activity at 100 µM ([2]; 100 μM, read-out: plaque-forming units as % of control): 0.1%
- antiherpes / anti-viral activity (words) [3]: significant antiherpes activities; also recorded: showing the higher activity
- antiherpes / anti-viral activity (words) ([3]; listed as 1-(2-Deoxy-β-D-ribofuranosyl)-5-(iodo)-2-pyrimidinone): high level of anti-viral activity
- binding to the virus-specific thymadine kinase [4]: stronger binding to the virus-specific thymadine kinase
- activity at 100 µM [5]: 1.6%
- activity at 100 µM [6]: 9.3%
- Survivors/Total ([7]; 10 mg/kg IP, 2 × 21/2): 0/5
- percent survival ([7]; 10 mg/kg IP, 2 × 21/2): 0%
- Mean Survival Time (days), of the mice that died ([7]; 10 mg/kg IP, 2 × 21/2, control 9.3 ± 1.1): 12.8 ± 3.6 days
- % ILS ([7]; 10 mg/kg IP, 2 × 21/2): 133%
- Survivors/Total ([7]; 10 mg/kg oral, 2 × 21/2): 0/5
- percent survival ([7]; 10 mg/kg oral, 2 × 21/2): 0%
- Mean Survival Time (days), of the mice that died ([7]; 10 mg/kg oral, 2 × 21/2, control 10.6 ± 2.1): 12.8 ± 3.6 days
- % ILS ([7]; 10 mg/kg oral, 2 × 21/2): 123%
- Survivors/Total ([7]; 40 mg/kg IP, 2 × 21/2): 2/5
- percent survival ([7]; 40 mg/kg IP, 2 × 21/2): 40%
- Mean Survival Time (days), of the mice that died ([7]; 40 mg/kg IP, 2 × 21/2, control 9.3 ± 1.1): 10.0 ± 1.0 days
- % ILS ([7]; 40 mg/kg IP, 2 × 21/2): 108%
- Survivors/Total ([7]; 40 mg/kg oral, 2 × 21/2): 2/5
- percent survival ([7]; 40 mg/kg oral, 2 × 21/2): 40%
- Mean Survival Time ([7]; 40 mg/kg oral, 2 × 21/2, control 10.6 ± 2.1): 10.0 ± 1.0 days
- % ILS ([7]; 40 mg/kg oral, 2 × 21/2): 94%
- Survivors/Total ([7]; 100 mg/kg IP, 1 × 5): 7/10
- percent survival ([7]; 100 mg/kg IP, 1 × 5): 70%
- Mean Survival Time (days), of the mice that died ([7]; 100 mg/kg IP, 1 × 5, control 9.6 ± 1.1): 12.0 ± 4.4 days
- % ILS ([7]; 100 mg/kg IP, 1 × 5): 129%
- Survivors/Total ([7]; 100 mg/kg IP, 2 × 21/2): 6/10
- percent survival ([7]; 100 mg/kg IP, 2 × 21/2): 60%
- Mean Survival Time (days), of the mice that died ([7]; 100 mg/kg IP, 2 × 21/2, control 9.3 ± 1.1): 12.5 ± 1.3 days
- % ILS ([7]; 100 mg/kg IP, 2 × 21/2): 135%
- Survivors/Total ([7]; 100 mg/kg SC, 1 × 5): 2/5
- percent survival ([7]; 100 mg/kg SC, 1 × 5): 40%
- Mean Survival Time (days), of the mice that died ([7]; 100 mg/kg SC, 1 × 5, control 9.4 ± 1.1): 12.3 ± 1.2 days
- % ILS ([7]; 100 mg/kg SC, 1 × 5): 131%
- Survivors/Total ([7]; 100 mg/kg oral, 2 × 21/2): 20/20
- percent survival ([7]; 100 mg/kg oral, 2 × 21/2): 100%
- Survivors/Total [7, 15]: 5/5
- percent survival [7, 15]: 100%
- Mean Survival Time ([7]; 100 mg/kg oral, 2 × 21/2, control 9.8 ± 1.3): > 45 days
- Mean Survival Time ([7]; 100 mg/kg oral, 2 × 21/2, control 10.6 ± 2.1): > 45 days
- Survivors/Total [7, 16]: 4/5
- percent survival [7, 16]: 80%
- Mean Survival Time (days), of the mice that died ([7]; 100 mg/kg oral, 2 × 21/2, innoculation dose 1 × 10^6 PFU, control 10.0 ± 1.2): 14.0 days
- % ILS [7, 16]: 140%
- toxicity to the host ([7]; oral, intraperitoneal or subcutaneous): without significant toxicity to the host
- activity against HSV-2 in vivo / life span of the host ([7]; summary of Table 5): active against HSV-2 in vivo; also recorded: can significantly increase
- activity at 100 µM [8]: 14%
- DAYS--SURVIVAL: deaths ([9]; intraperitoneal): 1 died on day 17
- long term survivors (>30 days) ([9]; intraperitoneal): 4
- DAYS--SURVIVAL: deaths ([9]; subcutaneous, 100 mg/kg): 1 died on day 11 and 2 died on day 13
- long term survivors (>30 days) ([9]; subcutaneous): 2
- DAYS--SURVIVAL: days average ([9]; subcutaneous, control 9.4 days average): 12 days
- activity at 100 µM [10]: 2.8%
- activity at 72 h, 100 µM ([11]; 100 μm, read-out: % Growth): 75%
- activity at 72 h, 200 µM ([11]; 200 μm, read-out: % Growth): 80%
- IC50 at 72 h ([11]; cytotoxicity, read-out: ID50): > 200 µM
- toxicity against the host cells [12]: low level of toxicity for the host cell
- antiviral activity, comparison of IPdR and FPdR [13]: comparable in antiviral activity
- inhibition at 100 µM ([13]; Human alphaherpesvirus 2, Vero, 100 μM, 48 hours): 51.1%
- activity at 100 µM [14]: 0.27%
